From US10287337B2 (priority 2015, dated 2019)

Assays:
[1] = test system: tibial neuroma-induced neuropathic pain in rats; assay: Tibial neuroma transposition model, neuroma tenderness; assay type: in vivo, rat; conditions: injected into skin over neuroma site
Excerpt: Sprague Dawley rats (male, approximately 400 g) were undergone surgery as described by Dorsi et al., briefly, a 2-3 cm incision was made through the skin and subcutaneous fascia of the ventral surface of the pelvic leg extending from the tarsometatarsal joint to approximately 1 cm distal to the level of the stifle the nerve was isolated and the posterior tibial branch was ligated and then sharply transected approximately 2 mm distal to the ligature, as illustrated in FIG. 8A. After the medial skin incision closure, the rat was transferred to a recovery cage devoid of bedding and placed halfway upon a recirculating hot water pad until standing; once recovered, the rat was returned to its home cage and monitored daily for signs of pain and wound dehiscence.
The rats were allowed to recover from the surgical procedure before beginning behavioral testing to assess neuroma development. On post-operative days 7 and 14, rats were assessed for mechanical pain using the “up-down” method of Von Frey mechanical testing and direct mechanical stimulation of the neuroma (referred to as neuroma tenderness testing). Neuroma tenderness was tested by applying the 15 g filament to the neuroma site up to five times in a series with a three second break between applications; the series was completed and scored as a positive as soon as a positive withdrawal response is seen. […]

[2] = test system: spared nerve injury-induced neuropathic pain in rats; assay: Spared nerve injury (SNI)-induced neuropathic pain model, thermal and mechanical pain thresholds; assay type: in vivo, rat; conditions: 50 μL
Experimental: Of the three branches of the sciatic nerve the tibial and common peroneal nerves were cut and ligated leaving the sural nerve intact. Pre-surgery baselines (BL, 100%) of the thermal and mechanical pain thresholds of the ipsilateral hindpaws were measured using the Hargreaves thermal stimulator (6.0 A with a surface temperature of 30° C.; Hargreaves et al., 1988) and von Frey hair monofilaments (up-down method, Chaplan et al., 1994). […] All drug testing was conducted with this post-SNI period.
The rat recovered from anesthesia within a few minutes and the thermal and mechanical pain thresholds were determined at 0.5, 1, 2, 3, 4, 5 and 6 hour after the treatment using the methods described above.
Using the same test protocol in a different cohort of SNI rats, novel AFA-peptide 3 (0.1, 1 and 3 μM, each 50 μL) or the vehicle (50 μL) was injected into the ipsilateral hindpaws under a brief and light anesthesia condition (with 2.5% isoflurane). The thermal and mechanical pain thresholds were determined at 0.5, 1, 2, 3, 4, 5 and 6 hour after the treatment. […]

[3] = daily intradermal injection 1 μM, 10 consecutive days

Substance: H-NFVPTNVGPFAF-NH2 [AFA-peptide 3, NH2-N-F-V-P-T-N-V-G-P-F-A-F-CONH2]
- duration of analgesic effect [1]: 3 to 4 h
- neuroma tenderness (in words) ([1]; 0.3 and 1 μM, 50 μL): reduced neuroma tenderness in dose-related manner
- analgesic effect on repeated dosing (in words) [2, 3]: consistent analgesic effects
- tolerance on repeated dosing (in words) [2, 3]: did not cause tolerance
- thermal and mechanical pain thresholds (in words) ([2]; local intradermal injection into SNI ipsilateral hindpaw, 0.5-6 hour after treatment, vs vehicle): produced analgesic effects, particularly on thermal pain in a dose-related manner
